Reference: patent US7521062B2, “Thiosemicarbazones as anti-virals and immunopotentiators” (Novartis Vaccines & Diagnostics, Inc., priority 2002, dated 2009)

Experiments:
[1] = test system: TNF-alpha production by human PBMC; assay: TNF-alpha production by human PBMC (ELISA); type: cell-based; settings: for TNFa production: cytokine secretion of hPBMC after stimulation with thiosemicarbazone compounds; for SMIP activity (cytokine induction, TNF-alpha and IL-12 p40, % of LPS activity): human PBMC, 5 μM, FIG. 4
Protocol: Candidate small molecule immuno-potentiators can be identified in vitro. Compounds are screened in vitro for their ability to stimulate human peripheral blood mononuclear cells to produce cytokines (e.g. TNF-alpha and IL-12 p40). HCV antivirals were identified having this activity. These small molecule immuno-potentiators have potential utility as adjuvants and immuno-therapeutics.
TNF-alpha production by human PBMC was measured using a commercial ELISA from supernatants of cells stimulated with the indicated compounds for 18 to 24 hours All test compounds were used at a final concentration of 5 μM/ml. Untreated PBMC (Cells) and LPS (0.1 ng/ml), CPG (10 ng/ml) and/or ALTTE (5 μM/ml) treated PBMC served as negative and positive controls, respectively.
Table 2. Cytokine secretion of hPBMC after stimulation with thiosemicarbazone compounds.
High Throughput Screening (ITS) for small molecule immune potentiators; SMIPs: Attention is drawn to FIG. 3. Various compounds were evaluated for their ability to produce cytokines in response to the small molecule compounds using a modified sandwich ELISA. Compounds are screened for their TNF inducing. “Hits” are selected based on their TNF-inducing activity relative to an optimal dose a strong TNF inducer. The robustness of the assay and low backgrounds have allowed for the routine selection of hits with ˜10% of this activity which is normally between 5-10× background (cells alone). Selected hits are then subjected to confirmation for their ability to induce cytokines from multiple donors at decreasing concentrations. Those compounds with consistent activity at or below 5 μM are considered confirmed.
Thiosemicarbazones compounds with and without anti-HCV activity were screened for their capacity to activate immune cells. Structural analogs of this scaffold have been tested for their ability to induce cytokines from human PBMC and murine splenocytes. […] All compounds were tested at a final concentration of 5 μM except for poly I:C (PIC) and the 1806 oligodinucleotide (CpG) which were used at 10 μg/ml and 10 ng/ml respectively.

[2] = test system: HCV replicon RNA in Huh-11-7 or Huh 9-13 cells; assay: HCV replicon cell based assay (quantification of HCV replicon RNA by RT-PCR, normalized to GAPDH); settings: separate/independent assays
Protocol: Quantification of HCV replicon RNA in Cell Lines (HCV Cell Based Assay):
Cell lines, including Huh-11-7 or Huh 9-13, harboring HCV replicons (Lohmann, et al Science 285:110-113, 1999) are seeded at 5×10^3 cells/well in 96 well plates and fed media containing DMEM (high glucose), 10% fetal calf serum, penicillin-streptomycin and non-essential amino acids. Cells are incubated in a 5% CO2 incubator at 37° C. At the end of the incubation period, total RNA is extracted and purified from cells using Qiagen Rneasy 96 Kit (Catalog No. 74182). To amplify the HCV RNA so that sufficient material can be detected by an HCV specific probe (below), primers specific for HCV (below) mediate both the reverse transcription (RT) of the HCV RNA and the amplification of the cDNA by polymerase chain reaction (PCR) using the TaqMan One-Step RT-PCR Master Mix Kit (Applied Biosystems catalog no. 4309169). […]
Detection of the RT-PCR product was accomplished using the Applied Biosystem (ABI) Prism 7700 Sequence Detection System (SDS) that detects the fluorescence that is emitted when the probe, which is labeled with a fluorescence reporter dye and a quencher dye, is processed during the PCR reaction. The increase in the amount of fluorescence is measured during each cycle of PCR and reflects the increasing amount of RT-PCR product. […] The data is analyzed using the ABI SDS program version 1.7. […]

Row | Compound | TNFa production [1] [ng/10^6 cells/ml] | anti-HCV activity [2] | SMIP activity (cytokine induction, TNF-alpha and IL-12 p40, % of LPS activity) [1]
1 | NC(=S)N/N=C/c1ccc(NCCc2cccc(Cl)c2)c([N+](=O)[O-])c1 [Example 86, 4-{[2-(3-chlorophenyl)ethyl]amino}-3-nitrobenzaldehydethiosemicarbazone] | 5 |  | 
2 | Cc1ccc2c(c1)c1c(n2C)/C(=N/NC(N)=S)CCC1 [Example 115, (1E)-6,9-dimethyl-2,3,4,9-tetrahydro-1H-carbazol-1-onethiosemicarbazone] | 1.25 |  | 
3 | COc1cc(/C=N/NC(N)=S)cc(Br)c1OCc1ccccc1F [Example 39, 3-bromo-4-{[(2-fluorophenyl)methyl]oxy}-5-(methyloxy)benzaldehydethiosemicarbazone] | 5 |  | 
4 | NC(=S)N/N=C/c1cccc(OCc2ccccc2)c1 [Example 7, 3-[(phenylmethyl)oxy]benzaldehydethiosemicarbazone] | 0 |  | 
5 | NC(=S)N/N=C/c1ccccn1 [Example 113, pyridine-2-carbaldehydethiosemicarbazone] | 2.34 | weak or absent anti-HCV effects | potent SMIP activity
6 | CCN(CC)c1ccc(/C=N/NC(N)=S)c(OCc2ccc(Cl)cc2)c1 [Example 29, 2-{[(4-chlorophenyl)methyl]oxy}-4-(diethylamino)benzaldehydethiosemicarbazone] |  | possess both SMIP and anti-HCV activity | possess both SMIP and anti-HCV activity
7 | NC(=S)N/N=C/c1ccc(-c2cccc(Cl)c2)o1 [Example 12, 5-(3-chlorophenyl)furan-2-carbaldehyde thiosemicarbazone] | 2.32 |  | 
8 | NC(=S)N/N=C/c1ccc(NCCc2ccc(Cl)cc2)c([N+](=O)[O-])c1 [Example 87, 4-{[2-(4-chlorophenyl)ethyl]amino}-3-nitrobenzaldehydethiosemicarbazone] | 1.25 |  | 
9 | C/C(=N\NC(N)=S)c1sc(-c2ncc(C(F)(F)F)cc2Cl)nc1C [Example 114] | 1.7 |  | 
